# From patent publication US20210038579A1, “Treatment Of Patients With Classic Fabry Disease” (Amicus Therapeutics, Inc., priority 2018, published 2021)
# Positions count from the first letter of the chain named.
# Experiments:
# Assay in all cases: HEK assay: α-Gal A activity in HEK-293 cell lysate with migalastat
# Type in all cases: cell-based
# [1] = target: T1, α-Gal A mutant form p.Gly144Val (c.431 G > T) (Homo sapiens, UniProt P06280, G144V)
# T1 construct: expressed in transfected cells; host or cells: HEK-293
# T1 sequence (P06280 32-429 G144V): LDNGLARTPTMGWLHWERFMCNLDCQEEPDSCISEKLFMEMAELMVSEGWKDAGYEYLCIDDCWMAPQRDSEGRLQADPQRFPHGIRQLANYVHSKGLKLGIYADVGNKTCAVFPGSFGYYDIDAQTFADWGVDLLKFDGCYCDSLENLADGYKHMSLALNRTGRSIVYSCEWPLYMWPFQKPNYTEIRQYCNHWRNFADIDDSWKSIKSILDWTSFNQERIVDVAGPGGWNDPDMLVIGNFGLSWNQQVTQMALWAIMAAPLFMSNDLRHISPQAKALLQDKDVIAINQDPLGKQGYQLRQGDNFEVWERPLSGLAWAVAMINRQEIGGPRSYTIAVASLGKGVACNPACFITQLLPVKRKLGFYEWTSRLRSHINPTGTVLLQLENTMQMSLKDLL
# Summary of the method: (§1)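 Mutant α-Gal A forms from cDNA constructs were transiently expressed in HEK-293 cells, then incubated with or without migalastat (17 nM to 1 mM) for 4 to 5 days. Enzyme levels in cell lysates were measured with the fluorogenic substrate 4-MU-α-Gal or by western blot.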
# [2] = target: T2, α-Gal A mutant form p.Gly325Arg (c.973G > C) (Homo sapiens, UniProt P06280, G325R)
# T2 construct: expressed in transfected cells; host or cells: HEK-293
# T2 sequence (P06280 32-429 G325R): T1 sequence (P06280 32-429 G144V) with V113G, G294R
# Summary of the method: as §1
# [3] = target: T3, α-Gal A mutant form p.Asp322Glu (c.966 C > A) (Homo sapiens, UniProt P06280, D322E)
# T3 construct: expressed in transfected cells; host or cells: HEK-293
# T3 sequence (P06280 32-429 D322E): T1 sequence (P06280 32-429 G144V) with V113G, D291E
# Summary of the method: as §1
# [4] = target: T4, α-Gal A mutant form p.Met284Thr (c.851 T > C) (Homo sapiens, UniProt P06280, M284T)
# T4 construct: expressed in transfected cells; host or cells: HEK-293
# T4 sequence (P06280 32-429 M284T): T1 sequence (P06280 32-429 G144V) with V113G, M253T
# Summary of the method: as §1
# [5] = target: T5, α-Gal A mutant form p.Gly85Asp (c.254 G > A) (Homo sapiens, UniProt P06280, G85D)
# T5 construct: expressed in transfected cells; host or cells: HEK-293
# T5 sequence (P06280 32-429 G85D): T1 sequence (P06280 32-429 G144V) with G54D, V113G
# Summary of the method: as §1
# [6] = +10 μM migalastat, HEK-293 cell lysate, mean ± SEM, n = 20
# [7] = HEK293, 10 μM migalastat minus baseline, read-out: Absolute increase at 10 μM (% WT)
smiles,measurement,setting,value
OC[C@H]1NC[C@H](O)[C@@H](O)[C@H]1O [migalastat],α-Gal A activity at 10 μM (fold over baseline),[1]; 10 μM migalastat,11.58 fold over baseline
same,+Migalastat α-Gal A activity,[1]; [6],2924 ± 335 nmol/mg/h
same,+Migalastat α-Gal A activity % WT,[1]; [6],9.2 ± 1.2 % WT
same,activation at 10 µM,[1]; [7],8.4%
same,α-Gal A activity at 10 μM (fold over baseline),[2]; 10 μM migalastat,10.17 fold over baseline
same,+Migalastat α-Gal A activity,[2]; [6],9244 ± 417 nmol/mg/h
same,+Migalastat α-Gal A activity % WT,[2]; [6],26.6 ± 1.4 % WT
same,activation at 10 µM,[2]; [7],24%
same,α-Gal A activity at 10 μM (fold over baseline),[3]; 10 μM migalastat,3.98 fold over baseline
same,+Migalastat α-Gal A activity,[3]; [6],9554 ± 667 nmol/mg/h
same,+Migalastat α-Gal A activity % WT,[3]; [6],26.8 ± 1.3 % WT
same,activation at 10 µM,[3]; [7],20%
same,α-Gal A activity at 10 μM (fold over baseline),[4]; 10 μM migalastat,8.33 fold over baseline
same,+Migalastat α-Gal A activity,[4]; [6],5050 ± 268 nmol/mg/h
same,+Migalastat α-Gal A activity % WT,[4]; [6],14.3 ± 0.6 % WT
same,activation at 10 µM,[4]; [7],12.6%
same,α-Gal A activity at 10 μM (fold over baseline),[5]; 10 μM migalastat,5.10 fold over baseline
same,+Migalastat α-Gal A activity,[5]; [6],4534 ± 135 nmol/mg/h
same,+Migalastat α-Gal A activity % WT,[5]; [6],14.3 ± 0.9 % WT
same,activation at 10 µM,[5]; [7],11.6%
